The text below walks through data of patent US12453708B2, “Aminonaphthoquinone compounds for treatment and/or prevention of fibrosis diseases” (CALGENT BIOTECHNOLOGY CO., LTD., priority 2015, dated 2025).

Experiment [1] concerns TGF-β-induced CTGF expression in WI-38 cells. The experiment can be described thus: TGF-β-induced CTGF expression in WI-38 cells (Western blot). Type of experiment: cell-based, human. To be noted: WI-38 lung fibroblasts, 0.3, 1, 3 or 10 μM for 30 min before and during 2 h TGF-β (10 ng/mL). Here is the method:
(§1) FIGS. 1 (A) and (B) show the effect of L056 on TGF-β-induced CTGF expression in WI-38 cells. WI-38 lung fibroblasts were incubated with different concentrations of L056 (0.3, 1, 3 or 10 μM) for 30 min before and during incubation for 2 h with TGF-β (10 ng/mL). […] (A), Western blot plot; (B), Quantitative assay of Western blot. WI-38 cells, a normal human embryonic lung fibroblast cell line, were obtained from American Type Culture Collection (Manassas, VA). Cells were grown in MEM nutrient mixture, containing 10% FCS, 2 mM L-glutamine, 0.1 mM NEAA, 1 mM sodium pyruvate, 50 U/ml penicillin G, and 100 µg/ml streptomycin, in a humidified 37° C. incubator with 5% CO2 Cells were used between passages 18 and 30 for all experiments. After reaching confluence, cells were seeded onto 6-cm dishes for immunoblotting. Western blot analyses were performed as described previously (Chen B C, Chang Y S, Kang J C, Hsu M J, Sheu J R, Chen T L, et al. Peptidoglycan induces nuclear factor-kappaB activation and cyclooxygenase-2 expression via Ras, Raf-1, and ERK in RAW 264.7 macrophages. J Biol Chem 2004; 279:20889-97). […] The immunoreactivity was detected using enhanced chemiluminescence (ECL) following the manufacturer's instructions. Quantitative data were obtained using a computing densitometer with scientific imaging systems (Kodak, Rochester, NY). […]
(In general: Immunoblotting shows a protein as a band on a membrane.)

The subject of experiment [2] is thrombin-induced CTGF expression in WI-38 cells. Put plainly: thrombin-induced CTGF expression in WI-38 cells (Western blot). Type of experiment: cell-based, human. Particulars: WI-38 lung fibroblasts, 0.3, 1, 3 or 10 μM for 30 min before and during 2 h thrombin (1 U/ml). Here is the method:
as §1, with “FIGS. 3” for “FIGS. 1”, “on thrombin-induced” for “on TGF-β-induced”, “with thrombin (1 U/ml).” for “with TGF-β (10 ng/mL).”

The structures appear in SMILES notation.

With `O=C(Nc1ccncc1)c1ccc(CNC2=C(Cl)C(=O)c3ccccc3C2=O)cc1` [Example L056, 4-(((3-chloro-1,4-dioxo-1,4-dihydronaphthalen-2-yl)amino)methyl)-N-(pyridin-4-yl)benzamide], in experiment [1], the “TGF-β-induced CTGF production” value is listed as “significantly inhibited”. Also, the “thrombin-induced CTGF production/expression” value in experiment [2] is reported as “significantly inhibited”; in experiment [2] (listed as MPTOL0560), “inhibited”.
